Measurements published in ChEMBL document CHEMBL1909046, “DrugMatrix in vitro pharmacology data”.

Assays:
[1] = target: T1, Type-2 angiotensin II receptor (Homo sapiens, UniProt P50052); assay type: cell-based; details: cho-k1; note: in other assays of this panel Not Active means under 50% inhibition at 10 µM
T1 sequence (P50052 whole entry): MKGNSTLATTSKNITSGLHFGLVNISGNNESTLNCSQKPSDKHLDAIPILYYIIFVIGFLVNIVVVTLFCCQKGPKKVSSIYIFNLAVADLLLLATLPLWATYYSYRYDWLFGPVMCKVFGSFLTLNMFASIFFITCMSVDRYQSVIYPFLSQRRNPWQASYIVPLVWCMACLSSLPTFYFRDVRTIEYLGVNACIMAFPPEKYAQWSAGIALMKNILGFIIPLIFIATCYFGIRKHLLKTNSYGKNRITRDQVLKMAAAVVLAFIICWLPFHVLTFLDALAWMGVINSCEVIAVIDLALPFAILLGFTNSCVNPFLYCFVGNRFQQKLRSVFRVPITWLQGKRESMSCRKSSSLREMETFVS

[2] = target: Sodium-dependent dopamine transporter (Homo sapiens, UniProt Q01959); test: DRUGMATRIX: Dopamine Transporter radioligand binding (ligand: [125I] RTI-55); assay type: cell membranes, CHO-K1, Membrane; details: cho-k1; Not Active = under 50% inhibition at 10 µM
[3] = target: T2, Cysteinyl leukotriene receptor 1 (Homo sapiens, UniProt Q9Y271); assay type: cell membranes, Membrane; details: cho-k1; note: in other assays of this panel Not Active means under 50% inhibition at 10 µM
T2 sequence (Q9Y271 whole entry): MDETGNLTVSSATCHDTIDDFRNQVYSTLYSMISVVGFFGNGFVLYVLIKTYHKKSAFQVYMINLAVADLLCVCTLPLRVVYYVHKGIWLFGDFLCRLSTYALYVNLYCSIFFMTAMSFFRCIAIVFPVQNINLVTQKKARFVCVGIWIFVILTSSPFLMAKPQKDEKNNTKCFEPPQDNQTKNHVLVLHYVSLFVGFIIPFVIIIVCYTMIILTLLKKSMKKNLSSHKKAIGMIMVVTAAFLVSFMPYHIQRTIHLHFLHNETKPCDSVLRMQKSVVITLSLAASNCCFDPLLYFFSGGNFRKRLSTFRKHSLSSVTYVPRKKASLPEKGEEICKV

[4] = DRUGMATRIX: Phosphodiesterase PDE4 enzyme inhibition (substrate: [3H]cAMP + cAMP); details: u-937; Not Active = under 50% inhibition at 10 µM
[5] = target: T3, Angiotensin-converting enzyme (Oryctolagus cuniculus, UniProt P12822); assay type: tissue-based, Lung;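 note: enzymatic inhibition of angiotensin-converting enzyme measured with FAPGG as the substrate; in other assays of this panel Not Active means under 50% inhibition at 10 µM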
T3 sequence (P12822 whole entry): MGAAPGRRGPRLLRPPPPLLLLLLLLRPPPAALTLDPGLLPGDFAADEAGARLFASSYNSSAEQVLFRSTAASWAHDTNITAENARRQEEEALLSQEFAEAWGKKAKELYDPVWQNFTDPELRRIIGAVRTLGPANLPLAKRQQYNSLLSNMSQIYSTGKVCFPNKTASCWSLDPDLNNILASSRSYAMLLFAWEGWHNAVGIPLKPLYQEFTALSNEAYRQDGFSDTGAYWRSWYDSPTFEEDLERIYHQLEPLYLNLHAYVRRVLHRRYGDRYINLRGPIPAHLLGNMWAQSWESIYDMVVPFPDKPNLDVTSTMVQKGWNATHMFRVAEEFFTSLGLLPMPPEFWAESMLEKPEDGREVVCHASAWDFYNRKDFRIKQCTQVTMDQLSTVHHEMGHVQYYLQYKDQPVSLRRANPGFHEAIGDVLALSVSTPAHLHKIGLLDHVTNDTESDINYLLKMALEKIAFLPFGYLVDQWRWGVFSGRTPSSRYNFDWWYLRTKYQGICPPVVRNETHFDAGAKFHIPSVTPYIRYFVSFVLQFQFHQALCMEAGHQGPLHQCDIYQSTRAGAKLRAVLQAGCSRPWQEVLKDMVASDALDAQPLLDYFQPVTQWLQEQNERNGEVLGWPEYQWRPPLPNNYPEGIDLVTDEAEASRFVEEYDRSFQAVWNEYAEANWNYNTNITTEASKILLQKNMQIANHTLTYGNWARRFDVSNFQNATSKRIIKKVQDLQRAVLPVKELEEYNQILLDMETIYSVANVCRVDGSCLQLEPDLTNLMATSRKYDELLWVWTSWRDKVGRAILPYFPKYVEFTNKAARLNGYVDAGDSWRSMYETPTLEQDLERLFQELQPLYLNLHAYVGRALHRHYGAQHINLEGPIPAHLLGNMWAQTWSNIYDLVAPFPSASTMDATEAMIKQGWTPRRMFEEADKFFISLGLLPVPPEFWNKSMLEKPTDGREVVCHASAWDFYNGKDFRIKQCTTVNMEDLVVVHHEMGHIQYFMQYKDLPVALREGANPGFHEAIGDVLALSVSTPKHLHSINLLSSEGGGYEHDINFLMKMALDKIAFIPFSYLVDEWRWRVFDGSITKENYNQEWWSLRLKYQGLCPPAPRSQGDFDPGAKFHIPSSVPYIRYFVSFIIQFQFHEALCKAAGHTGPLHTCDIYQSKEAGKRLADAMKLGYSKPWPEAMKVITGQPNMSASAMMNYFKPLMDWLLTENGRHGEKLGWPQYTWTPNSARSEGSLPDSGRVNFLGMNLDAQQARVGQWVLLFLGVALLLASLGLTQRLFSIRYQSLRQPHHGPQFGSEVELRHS

Glucocorticoid receptor = target: T4, Glucocorticoid receptor (Homo sapiens, UniProt P04150); details: hela s3; note: in other assays of this panel Not Active means under 50% inhibition at 10 µM
T4 sequence (P04150 whole entry): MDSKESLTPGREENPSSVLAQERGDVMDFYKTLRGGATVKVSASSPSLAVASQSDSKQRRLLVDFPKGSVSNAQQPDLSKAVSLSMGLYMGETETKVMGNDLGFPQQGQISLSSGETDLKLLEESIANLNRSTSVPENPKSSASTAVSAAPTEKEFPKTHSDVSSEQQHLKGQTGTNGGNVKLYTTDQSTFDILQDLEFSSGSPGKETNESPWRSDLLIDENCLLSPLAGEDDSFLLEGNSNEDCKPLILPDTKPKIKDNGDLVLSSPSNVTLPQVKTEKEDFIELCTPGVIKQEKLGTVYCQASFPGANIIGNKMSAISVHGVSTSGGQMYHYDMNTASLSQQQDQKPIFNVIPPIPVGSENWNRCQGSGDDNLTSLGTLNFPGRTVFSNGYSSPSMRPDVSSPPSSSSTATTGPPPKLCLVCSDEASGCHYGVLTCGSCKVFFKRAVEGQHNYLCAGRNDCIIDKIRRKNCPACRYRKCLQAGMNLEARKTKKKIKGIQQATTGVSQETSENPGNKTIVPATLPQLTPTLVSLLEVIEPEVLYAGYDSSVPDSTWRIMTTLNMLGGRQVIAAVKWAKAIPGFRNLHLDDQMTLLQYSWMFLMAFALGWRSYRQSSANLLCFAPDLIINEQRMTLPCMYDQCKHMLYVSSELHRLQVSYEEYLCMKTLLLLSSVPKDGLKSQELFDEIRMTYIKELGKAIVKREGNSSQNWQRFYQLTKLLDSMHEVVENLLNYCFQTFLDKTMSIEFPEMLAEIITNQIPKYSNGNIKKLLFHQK

Chain of Sodium-dependent dopamine transporter (Q01959 whole entry): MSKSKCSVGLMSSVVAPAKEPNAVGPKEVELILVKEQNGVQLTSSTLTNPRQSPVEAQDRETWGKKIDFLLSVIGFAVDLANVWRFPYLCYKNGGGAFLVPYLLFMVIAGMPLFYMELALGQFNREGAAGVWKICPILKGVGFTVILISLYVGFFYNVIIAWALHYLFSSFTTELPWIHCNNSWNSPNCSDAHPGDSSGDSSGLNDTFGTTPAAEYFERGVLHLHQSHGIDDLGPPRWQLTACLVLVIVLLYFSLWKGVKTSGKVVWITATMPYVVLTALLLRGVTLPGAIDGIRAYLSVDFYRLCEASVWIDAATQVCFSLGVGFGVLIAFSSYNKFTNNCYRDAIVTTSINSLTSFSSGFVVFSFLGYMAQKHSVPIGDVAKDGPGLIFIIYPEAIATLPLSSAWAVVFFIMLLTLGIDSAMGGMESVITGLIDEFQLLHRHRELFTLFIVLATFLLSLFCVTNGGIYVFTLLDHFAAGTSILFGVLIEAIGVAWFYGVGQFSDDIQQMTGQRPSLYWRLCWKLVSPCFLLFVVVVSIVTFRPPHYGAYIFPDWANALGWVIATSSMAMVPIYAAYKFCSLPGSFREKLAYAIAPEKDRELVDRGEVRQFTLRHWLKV

Nc1ccc2c3c(cccc13)C(=O)NC2=O
Not Active: IC50 [1] | IC50 [2] | IC50 [3] | IC50 [4] | Ki [4] | IC50 [5] | IC50 (Glucocorticoid receptor)

CCN(CC)CCOCCC1=CCC2CC1C2(C)C (stereo not given) [MYRTECAINE]
Not Active: IC50 [1] | IC50 [2] | IC50 [3] | IC50 [4] | Ki [4] | IC50 [5] | IC50 (Glucocorticoid receptor)

CC(C)=CCC/C(C)=C/CO [GERANIOL]
Not Active: IC50 [1] | IC50 [2] | IC50 [3] | IC50 [4] | Ki [4] | IC50 [5] | IC50 (Glucocorticoid receptor)

CCCOc1ccc(C(=O)OCCN(CC)CC)cc1N [PROPARACAINE]
Not Active: IC50 [1] | IC50 [2] | IC50 [3] | IC50 [4] | Ki [4] | IC50 [5] | IC50 (Glucocorticoid receptor)

O=C(O)c1cccnc1Nc1cccc(C(F)(F)F)c1 [NIFLUMIC ACID]
Not Active: IC50 [1] | IC50 [2] | IC50 [3] | IC50 [4] | Ki [4] | IC50 [5] | IC50 (Glucocorticoid receptor)

CN1[C@@H]2CC[C@H]1C[C@@H](OC(=O)C(CO)c1ccccc1)C2 (stereo not given in full) [ATROPINE]
Not Active: IC50 [1] | IC50 [2] | IC50 [3] | IC50 [4] | Ki [4] | IC50 [5] | IC50 (Glucocorticoid receptor)

CCCN(CCC)S(=O)(=O)c1ccc(C(=O)O)cc1 [PROBENECID]
Not Active: IC50 [1] | IC50 [2] | IC50 [3] | IC50 [4] | Ki [4] | IC50 [5] | IC50 (Glucocorticoid receptor)

O=C1CN=C(c2ccccc2Cl)c2cc([N+](=O)[O-])ccc2N1 [CLONAZEPAM]
Not Active: IC50 [1] | IC50 [2] | IC50 [3] | IC50 [4] | Ki [4] | IC50 [5] | IC50 (Glucocorticoid receptor)

GENTAMICIN
Not Active: IC50 [1] | Ki [1] | IC50 [2] | Ki [2] | IC50 [3] | Ki [3] | IC50 [4] | Ki [4] | IC50 [5] | Ki [5] | IC50 (Glucocorticoid receptor) | Ki (Glucocorticoid receptor)

C[C@@H]1O[C@@H](O[C@@H]2C=C3CC[C@@H]4[C@H](CC[C@]5(C)[C@@H](c6ccc(=O)oc6)CC[C@]45O)[C@@]3(C)CC2)[C@H](O)[C@H](O)[C@H]1O [PROSCILLARIDIN]
Not Active: IC50 [1] | IC50 [2] | IC50 [3] | IC50 [4] | Ki [4] | IC50 [5] | IC50 (Glucocorticoid receptor)

C[n+]1ccc(-c2cc[n+](C)cc2)cc1.[Cl-].[Cl-] [PARAQUAT DICHLORIDE]
Not Active: IC50 [1] | IC50 [2] | IC50 [3] | IC50 [4] | Ki [4] | IC50 [5] | IC50 (Glucocorticoid receptor)

Cc1cc2c(OCC(CNC(C)(C)C)OC(=O)c3ccccc3)cccc2[nH]1 (stereo not given) [BOPINDOLOL]
Not Active: IC50 [1] | IC50 [2] | IC50 [3] | IC50 [4] | Ki [4] | IC50 [5] | IC50 (Glucocorticoid receptor)

Nc1ccn([C@@H]2O[C@H](CO)[C@@H](O)C2(F)F)c(=O)n1 [GEMCITABINE]
Not Active: IC50 [1] | IC50 [2] | IC50 [3] | IC50 [4] | Ki [4] | IC50 [5] | IC50 (Glucocorticoid receptor)

Nc1ccn([C@@H]2O[C@H](CO)[C@@H](O)[C@@H]2O)c(=O)n1 [CYTARABINE]
Not Active: IC50 [1] | IC50 [2] | IC50 [3] | IC50 [4] | Ki [4] | IC50 [5] | IC50 (Glucocorticoid receptor)

GADOPENTETATE DIMEGLUMINE
Not Active: IC50 [1] | Ki [1] | IC50 [2] | Ki [2] | IC50 [3] | Ki [3] | IC50 [4] | Ki [4] | IC50 [5] | Ki [5] | IC50 (Glucocorticoid receptor) | Ki (Glucocorticoid receptor)
